Results: PMC12801355, “Peptide Amphiphiles Hitchhike on Endogenous Biomolecules for Enhanced Cancer Imaging and Therapy” (Advanced Materials (Deerfield Beach, Fla.), 2025)
Like-named read-outs stand apart in the source and are kept apart here. *1 amine or outer side, *2 acyl side, *3 side chain or, on linkers, in order; H or OH if unused. Where a SMILES comes first, the peptide text is derived from it. Bridges are numbered along the chain shown (N, C = ends). Roman numbers before positions name the chains, in order. [ ]: non-standard residue; d: D form. The star is where a group is joined. Hexanoyl(6-succinimido-3yl) = O=C1CC([*:1])C(=O)N1CCCCCC(=O)[*:2]; Dolaproine = CO[C@@H]([C@@H]1CCCN1)[C@@H](C)C(=O)O; Dil = CC[C@H](C)[C@H](NC)[C@@H](CC(=O)O)OC; PABC = O=C(OCc1ccc(N[*:1])cc1)[*:2]; Palmitoyl = CCCCCCCCCCCCCCCC(=O)*; X1 = C[C@@H](N*)[C@@H](O)c1ccccc1; Cit = NC(=O)NCCC[C@H](N)C(=O)O; NMeV = CN[C@H](C(=O)O)C(C)C

Experiments:
[1] = test system: 4T1 tumor; test: Antitumor effect, 4T1 orthotopic mouse model
Protocol: (§1) All experiments were approved by the Oregon Health and Science University (OHSU) Institutional Animal Care and Use Committee (IACUC) (TR01_IP00000674) and conformed to the guidelines set by the United States Animal Welfare Act and the National Institutes of Health. Mice were aged between 3 and 8 months and 20–30 g in weight and were housed in specific pathogen free cages. Human, mouse, or rat cells were injected into nude (The Jackson Laboratory, 002019), NSG mice (The Jackson Laboratory, 005557), Balb/c mice (The Jackson Laboratory, 000651), or C57Bl/6J mice (The Jackson Laboratory, 000664), as specified below. Cells were injected in 100 µL sterile DMEM at a concentration of 0.5–1×10^7 cells mL^−1, unless otherwise specified. For tumor accumulation and biodistribution studies, A375 cells were injected intradermally into the left ears of NSG mice (The Jackson Laboratory, 005557). MCF7 cells were injected into the mammary fat pad of NSG mice. HCT‐116, RG2, and HeLa (wild type or LDL‐R knockout) cells were subcutaneously injected into the left or both flanks of NSG mice. 4T1 cells were injected into the mammary fat pad of Balb/c mice. LLC1, MC38, and TRAMP‐C2 (wild type or SR‐B1 knockout) were injected into C57Bl/6J mice. Patient‐derived xenografts were generated by injecting the patient‐derived cancer cells subcutaneously into the left flank of NSG mice. ApoA1 and LDL‐R knockout mice were purchased from the Jackson Laboratory (002055 and 002207, respectively). MC38 cells were subcutaneously injected into both flanks of these mice. Apc^min and MMTV‐PyMT mice were purchased from the Jackson Laboratory (002020 and 002374). For antitumor activity studies, 4T1 cells were injected into the mammary fat pad of Balb/c mice. HCT‐116 and RG2 cells were subcutaneously injected into the left flanks of nude mice. For antitumor activity studies, HCT‐116 cells were injected in a 1:1 mixture of DMEM and Matrigel (Life Science 354263).
(§2) Mice were injected with 4T1, RG2, or HCT‐116 cells as described above. Mice were then treated intravenously with the free MMAE (0.1 or 0.3 mg kg^−1), SA‐E‐MMAE (0.3, 0.6, 0.8, or 1 mg kg^−1) or PBS (10 mM, pH 7.4). 5 doses were given every 2–3 days over 11 days. […] Tumor size and mouse weight were monitored 2–3 times per week until a humane endpoint (tumor size ≈2 cm or >20% body weight loss) or the study endpoint (18, 25, or 120 days for 4T1, RG2, and HCT‐116 studies, respectively). Tumor size was measured in two directions with a caliper rounded to the nearest tenth of a mm. Volume was calculated as a basic sphere of 4/3πr^3.

[2] = test system: RG2 xenografts; test: Antitumor effect, RG2 xenografts in nude mice; assay type: in vivo, mouse; details: 1 mg kg^−1 IV, 5 doses
Protocol: All experiments were approved by the Oregon Health and Science University (OHSU) Institutional Animal Care and Use Committee (IACUC) (TR01_IP00000674) and conformed to the guidelines set by the United States Animal Welfare Act and the National Institutes of Health. Mice were aged between 3 and 8 months and 20–30 g in weight and were housed in specific pathogen free cages. Human, mouse, or rat cells were injected into nude (The Jackson Laboratory, 002019), NSG mice (The Jackson Laboratory, 005557), Balb/c mice (The Jackson Laboratory, 000651), or C57Bl/6J mice (The Jackson Laboratory, 000664), as specified below. Cells were injected in 100 µL sterile DMEM at a concentration of 0.5–1×10^7 cells mL^−1, unless otherwise specified. For tumor accumulation and biodistribution studies, A375 cells were injected intradermally into the left ears of NSG mice (The Jackson Laboratory, 005557). MCF7 cells were injected into the mammary fat pad of NSG mice. […]
as §2, with “above.” for “above. Mice were then treated intravenously with the free MMAE (0.1 or 0.3 mg kg^−1), SA‐E‐MMAE (0.3, 0.6, 0.8, or 1 mg kg^−1) or PBS (10 mM, pH 7.4). 5 doses were given every 2–3 days over 11 days.”

[3] = test system: HCT‐116 tumor
Protocol: as §1, §2

[4] = test system: LPs (HDL, LDL, VLDL) and albumin in pooled human plasma; test: FPLC of PAs in 10% human plasma; details: MMAE conjugated SA‐E, 250 µM, detection at 250 nm
Protocol: FPLC experiments were performed using SA‐E, SA‐K, or No‐SA conjugated with ICG or SA‐E conjugated with MMAE at a final concentration of 250 µM in filtered PBS (10 mM, pH 7.4) with or without human plasma or purified LPs or albumin. For analysis of SA‐E interactions with purified LPs, VLDL, LDL, HDL, and human serum albumin were diluted in filtered PBS to approximate concentrations found in 10% human plasma: 0.0025, 0.13, 0.05, and 5mg mL^−1, respectively. SA‐E was incubated with the purified LP/protein mixture for 30 min at 37 °C before injection. For analysis of plasma interactions, PAs or No‐SA were incubated in PBS containing 10% pooled human plasma for 30 min at 37 °C before injection. The total volume injected for all samples was 400 µL. All data was collected on an ÄKTA pure chromatography system using the following running conditions: size exclusion chromatography on a Superose 6 Increase 10/300 GL column with a column volume (CV) of 30 mL, pre‐column pressure limit of 5 MPa, delta‐column pressure limit of 2.6 MPa, flow rate of 0.75 mL min^−1, in 100% PBS. The sample running method included first an equilibration step before injection of the sample with 100% PBS for 0.5 CV, followed by sample application via 1 mL capillary loop in 100% PBS, and finished with a linear elution consisting of 2 CV collected in 1 mL fractions. The UV‐Vis detector wavelengths were 250, 280, and 700 nm to detect MMAE, all proteins/LPs, and ICG, respectively.

[5] = Fluorescence polarization of PA nanostructures; assay type: physicochemical; details: ICG‐conjugated SA‐E (10 mol%) mixed with MMAE‐conjugated SA‐E (90 mol%), 200 µM total; mean ± SEM
Protocol: ICG (10 mol%) containing PA micelles were prepared by mixing ICG‐conjugated PAs with unconjugated or MMAE‐conjugated PAs to achieve a final concentration of 20 µM ICG‐conjugated PAs and 200 µM of total PAs. Aliquots of 100 µL were added to a 96‐well plate (3 wells for each PA). Fluorescence polarization measurements were performed using a microplate reader (TECAN Spark 20 M). The corrected parallel intensity (I par) and perpendicular intensity (Iper) were used to calculate the fluorescence anisotropy (r) using the following equation: r = […].

**Q.** Which tumor growth reduction ([1]; 0.6 mg kg^−1 (based on MMAE) IV, 5 doses over 11 days, n = 5, versus free MMAE and PBS) does the source give for `CCCCCCCCCCCCCCCC(=O)NCC(=O)NCC(=O)NCC(=O)N[C@@H](Cc1c[nH]cn1)C(=O)N[C@@H](C)C(=O)N[C@@H](C)C(=O)N[C@@H](CC(N)=O)C(=O)NCC(=O)N[C@@H](CCC(=O)O)C(=O)N[C@@H](CCC(=O)O)C(=O)N[C@@H](CSC1CC(=O)N(CCCCCC(=O)N[C@H](C(=O)N[C@@H](CCCNC(N)=O)C(=O)Nc2ccc(COC(=O)N(C)[C@H](C(=O)N[C@H](C(=O)N(C)[C@@H]([C@@H](C)CC)[C@@H](CC(=O)N3CCC[C@H]3[C@H](OC)[C@@H](C)C(=O)N[C@H](C)[C@@H](O)c3ccccc3)OC)C(C)C)C(C)C)cc2)C(C)C)C1=O)C(=O)N[C@@H](CCC(=O)O)C(=O)O` (some centres unmarked) [SA‐E‐MMAE] (I: Palmitoyl-GGGHAANGEECE-OH / II: V[Cit][PABC][NMeV]V[Dil][Dolaproine]-X1; linker I:11-II:N via Hexanoyl(6-succinimido-3yl); C-terminus assumed) here?
**A.** ≈ 75%

**Q.** And the body weight ([1]; 0.6 mg kg^−1 IV, 5 doses)?
**A.** no significant weight loss

**Q.** What about the “reduction in the tumor volume” value ([2]; n = 4, compared to the control) of the same compound?
**A.** around 80%

**Q.** What about the body weight ([2]; at the beginning of the therapy, overall tolerated) of the same compound?
**A.** slight weight loss

**Q.** What about the overall survival ([3]; 0.8 mg kg^−1 IV, 5 doses, n = 4, log‐rank) of the same compound?
**A.** significantly improved the overall survival

**Q.** What about the “effect on tumor size” value ([3]; 0.8 mg kg^−1 of MMAE IV, days 11, 14, 17, 19, 21, all mice, n = 4) of the same compound?
**A.** reduction in the tumor size

**Q.** And the average tumor volume ([3]; day 21, end of treatment)?
**A.** ≈ 150 mm^3

**Q.** And the average tumor volume ([3]; day 33)?
**A.** ≈ 40 mm^3

**Q.** And the “tumor‐free mice” value ([3]; day 120)?
**A.** one mouse remained tumor‐free on day 120

**Q.** And the “plasma component bound (FPLC)” value [4]?
**A.** assembled with HDL

**Q.** And the “fluorescence anisotropy of ICG in micelles” value [5]?
**A.** 0.188 ± 0.002
